As usually defined, the fraction unbound is free concentration divided by total concentration. Low readings indicate extensive binding, high ones weak binding. As a reminder, the half-life is the time in which the quantity being followed falls by half. A high value points to slow decline.

SMILES strings stand for the structures.

Data set [1] in a line: PPB (compound bound to proteins). The following applies: plasma.
Data set [2] can be described thus: Metabolic stability in cryopreserved beagle dog hepatocytes. The following applies: beagle, dog, cryopreserved hepatocytes, test compound 1 μM, 3 million cells per ml, 90 min incubation. In kind it is in vitro ADME. The method, then:
(§1) The metabolic stability of the compounds of the invention was evaluated in-vitro using cryopreserved beagle dog hepatocytes, as described in more detail hereinafter in the Experimental and Preparations section.
(§2) The test compound (1 μM) was incubated with cryopreserved beagle dog hepatocytes at 3 million cells per ml, in 300 μL of Leibovitz's medium for a total period of 90 min. During this period, 25 μL aliquots were taken at 1, 10, 30, 50, 70 & 90 minutes and quenched in acetonitrile. Quenched samples were centrifuged to pellet the precipitated protein, and supernatant removed for LC-MS-MS (high performance liquid chromatography coupled to a tandem mass spectrometer) analysis to quantify the amount of the parent test compound remaining. The first order elimination rate constant (k) was determined from a plot of natural log of parent test compound remaining versus time, and used to calculate a metabolic stability half-life (T1/2), where T1/2=Ln2/k where k=elimination rate constant.

Data set [3] relates to cryopreserved beagle dog hepatocytes. The data set is described as above. The following applies: Example 2 versus tianeptine. In kind it is in vitro ADME. The method, then:
as §1, §2

Data set [4] relates to hippocampal CA1 pyramidal neurones. As to the kind of experiment: Whole cell recording of EPSC amplitude in hippocampal slices. In kind it is cell-based, male Sprague-Dawley rats. How it is done:
The stimulatory activity of the compounds of the invention on the central nervous system was evaluated in-vitro by recording the excitatory postsynaptic current (EPSC) amplitude in stimulated hippocampal CA1 pyramidal neurones from slices of male Sprague-Dawley rats, as described in more detail hereinafter in the Experimental and Preparations section.
Male Sprague-Dawley rats, 15 to 20 days old at the time of surgery, were used in this study. On the day of the experiment, animals were terminally anaesthetized using isofluorane, cervically dislocated, and decapitated. The brain was removed and 400 μm thick parasagittal brain slices prepared using a Leica VT1000S. Slices were maintained in an artificial cerebrospinal fluid (ACSF) of the following composition (in mM, aqueous solution): 127 NaCl; 1.9 KCl; 1.2 KH2PO4; 2.4 CaCl2; 1.3 MgCl2; 26 NaHCO3; and, 10 D-glucose, bubbled with a mixture of 95% O2/5% CO2, at room temperature for 1 hour after slicing before commencing electrophysiological recordings. […]

In data set [1], `CN1c2ccccc2C(NCCCCOCC(=O)O)c2ccc(Cl)cc2S1(=O)=O` (stereo not drawn) [Example 2, 2-(4-((3-chloro-6-methyl-5,5-dioxido-6,11-dihydrodibenzo[c,f][1,2]thiazepin-11-yl)amino)butoxy)acetic acid] yielded a fraction unbound of 0.18. This molecule registered a half-life at 1 μM in data set [2] (T1/2=Ln2/k) of 34.4 h. Also, the hepatocyte CLint at 1 μM in data set [2] (read-out: Clint (intrinsic clearance)) came to 0.3 µL/min/1e6 cells. Further, in data set [3], the “metabolic stability half life compared with tianeptine” value is on record as “more than 10 times”. Further, the “increase of control EPSC amplitude” value in data set [4] (10 μM bath applied, percentage of the control, mean±S.E.M (n=6)) worked out at 224.67±34.27%. Moreover, the “effect on excitatory transmission in CA1 region of hippocampus (FIG. 1)” value in data set [4] (representative electrophysiological recording, 10 μM) is given as “facilitates excitatory transmission”.

(Values after patent publication US9487492B2, “Dibenzothiazepine derivatives and their use in the treatment of CNS disorders” (NUMEDICUS LIMITED, priority 2011, dated 2016).)
